25 compounds from patent US6927214B1 (Novo Nordisk A/S, priority 1999, dated 2005) can be followed below.

The structures appear in SMILES notation. Some results are limits rather than exact numbers.

The target of one series is T1, human GLP-1 receptor (Homo sapiens, UniProt P43220). Kind of series: Saturation experiments with labelled GLP-1 tracer on plasma membranes, with or without example 2. Conditions: 10 μM compound, saturation experiment. The format is binding. Also noted: expressed in transfected cells; host or cells: BHK (baby hamster kidney) cells; plasma membranes prepared from them.
T1 sequence (P43220 24-463): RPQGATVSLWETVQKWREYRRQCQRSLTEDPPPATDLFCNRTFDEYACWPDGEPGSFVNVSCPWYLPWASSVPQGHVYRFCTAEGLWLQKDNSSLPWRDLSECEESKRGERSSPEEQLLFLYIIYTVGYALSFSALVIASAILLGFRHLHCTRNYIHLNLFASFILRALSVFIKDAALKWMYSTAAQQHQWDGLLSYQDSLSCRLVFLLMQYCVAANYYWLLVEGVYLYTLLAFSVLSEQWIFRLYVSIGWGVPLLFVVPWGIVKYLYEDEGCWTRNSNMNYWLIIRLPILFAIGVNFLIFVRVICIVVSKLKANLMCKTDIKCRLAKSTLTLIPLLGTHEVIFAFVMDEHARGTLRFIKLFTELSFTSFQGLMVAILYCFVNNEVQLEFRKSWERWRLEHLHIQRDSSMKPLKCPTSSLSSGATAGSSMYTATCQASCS
Regarding `Cc1nnc(Sc2nc3cc(Cl)c(Cl)cc3nc2C(F)(F)F)s1` [Example 2, 6,7-Dichloro-2-trifluoromethyl-3-(5-methyl-1,3,4-thiadiazol-2-ylsulfanyl)quinoxaline], the “effect on the affinity of the receptor for GLP-1” value was “changed the affinity of the receptor for GLP-1”.

System in a further series: not given
Assay: not given
Conditions: not given
For the compound `Cc1nnc(Sc2nc3ccc(C(=O)c4ccccc4)cc3nc2C(F)(F)F)s1` [Example 158, [2-(5-Methyl-[1,3,4]thiadiazol-2-ylsulfanyl)-3-trifluorophenylquinoxalin-6-yl]phenyl Methanone], the melting point (commonly the temperature, or range, at which the solid turns liquid) fell in the range of 160 to 162 °C.

The target in another series is T1, human GLP-1 receptor. Kind of series: biochemical.
Conditions: not given
Take `O=C(c1ccccc1)c1ccc2nc(Br)c(C(F)(F)F)nc2c1` [Example 157, (2-Bromo-3-trifluoromethyl-quinoxalin-6-yl)phenyl Methanone]: the Emax – broadly, the greatest response seen or fitted, relative to the assay's reference – at 3.3 µM was 15%.
`CC(C)Sc1nc2cc(Cl)c(Cl)cc2nc1S(C)(=O)=O` [Example 137, 6,7-Dichloro-2-(isopropylsulfanyl)-3-(methylsulfonyl)quinoxaline]: the 50% effective concentration (EC50) – broadly, the concentration giving half of the maximal effect – is 660 nM and the Emax is 46%.
The compound `O=[N+]([O-])c1cc2nc(-c3ccccc3)c(C(F)(F)F)nc2cc1[N+](=O)[O-]` [Example 145, 6,7-Dinitro-2-phenyl-3-trifluoromethylquinoxaline] yielded an Emax at 0.33 µM of 36%.
Turning to `O=[N+]([O-])c1cc2ncc(-c3ccc(C(F)(F)F)cc3)nc2cc1[N+](=O)[O-]` [Example 147, 6,7-Dinitro-2-(4-trifluoromethylphenyl)quinoxaline], the Emax at 1 µM turned out to be 31%.
As to `CC(C)c1nc2cc(Cl)c(Cl)cc2nc1S(=O)(=O)c1cncn1C` [Example 65, 6,7-Dichloro-2-isopropyl-3-(1-methyl-1H-imidazol-5-ylsulfonyl)quinoxaline], the EC50 came out at 650 nM and the Emax came out at 53%.
With `CC(C)CCS(=O)(=O)c1nc2cc(Cl)ccc2nc1C(F)(F)F` [Example 169, 6-Chloro-3-(3-methylbutylsulfonyl)-2-trifluoromethyl-quinoxaline], the Emax at 1 µM came out at 19%.
Turning to `CC(C)Nc1nc2cc(Cl)c(Cl)cc2nc1S(=O)(=O)Cc1ccc(OC(F)F)cc1` [Example 136, (6,7-Dichloro-3-{[4-(difluoromethoxy)benzyl]sulfonyl}quinoxalin-2-yl)isopropylamine], the EC50 worked out at 820 nM and the Emax was 64%.
For `FC(F)(F)c1nc2cc(Cl)c(Cl)cc2nc1Sc1nccs1` [Example 156, 6,7-Dichloro-2-(thiazol-2-ylsulfanyl)-3-trifluoromethyl-quinoxaline], the Emax at 0.01 µM was determined as 42%.
With `CC(C)CCS(=O)(=O)c1nc2ccc(Cl)cc2nc1C(F)(F)F` [Example 170, 6-Chloro-2-(3-methylbutyl-1-sulfonyl)-3-trifluoromethyl-quinoxaline], the Emax at 1 µM was determined as 33%.
`CC(C)(C)Nc1nc2cc(Cl)c(Cl)cc2nc1S(C)(=O)=O` [Example 103, N-[6,7-Dichloro-3-(methylsulfonyl)-2-quinoxalinyl]N-tert-butylamine] registered an EC50 of 50 nM and a maximal effect (Emax) of 80%.
The matching figures for `CCC(C)(C)Nc1nc2cc(Cl)c(Cl)cc2nc1S(C)(=O)=O` [Example 135, (6,7-Dichloro-3-(methylsulfonyl)═quinoxalin-2-yl)tert-pentylamine]: 290 nM and 76%.
`Cn1ccnc1S(=O)(=O)c1nc2cc(Cl)c(Cl)cc2nc1NC(C)(C)C` [Example 138, (6,7-Dichloro-3-[(1-methyl-1H-imidazol-2-yl)sulfonyl]quinoxalin-2-yl)-tert-butylamine]: the EC50 was 540 nM and the Emax was found to be 72%.
Taken in the same sequence, the figures for `CCCc1nc2cc(Cl)c(Cl)cc2nc1S(C)(=O)=O` [Example 92, 6,7-Dichloro-2-(methylsulfonyl)-3-propylquinoxaline] were 770 nM and 53%.
Taken in the same sequence, the figures for `CS(=O)(=O)c1nc2cc(Cl)c(Cl)cc2nc1NC1CCCc2ccccc21` (stereo not shown) [Example 108, N-[6,7-Dichloro-3-(methylsulfonyl)-2-quinoxalinyl]-N-(1,2,3,4-tetrahydro-naphthalene-1-yl)amine] were 680 nM and 54%.

For a further series, the target named is T2, human glucagon receptor (Homo sapiens, UniProt P47871).
T2 construct: expressed in transfected cells
T2 sequence (P47871 26-477): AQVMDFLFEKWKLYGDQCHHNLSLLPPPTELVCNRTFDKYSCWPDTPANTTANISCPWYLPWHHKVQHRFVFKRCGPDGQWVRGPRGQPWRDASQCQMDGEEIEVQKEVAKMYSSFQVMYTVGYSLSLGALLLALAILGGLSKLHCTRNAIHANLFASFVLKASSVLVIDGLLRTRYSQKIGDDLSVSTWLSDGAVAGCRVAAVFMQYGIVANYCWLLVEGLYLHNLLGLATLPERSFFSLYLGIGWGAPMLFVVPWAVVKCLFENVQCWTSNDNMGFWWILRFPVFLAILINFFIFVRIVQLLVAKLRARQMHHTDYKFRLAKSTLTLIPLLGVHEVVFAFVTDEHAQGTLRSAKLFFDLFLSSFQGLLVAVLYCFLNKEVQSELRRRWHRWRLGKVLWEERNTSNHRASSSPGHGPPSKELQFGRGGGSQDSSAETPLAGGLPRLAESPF
Kind of series: Stimulation of cAMP formation in a cell line expressing the cloned human glucagon receptor. Particulars: concentrations tested up to 100 μM. The format is biochemical. For orientation: cAMP levels reflect the balance of adenylyl cyclase and phosphodiesterase activity.
On to `Cc1nnc(Sc2nc3cc(Cl)c(Cl)cc3nc2C(F)(F)F)s1` [Example 2, 6,7-Dichloro-2-trifluoromethyl-3-(5-methyl-1,3,4-thiadiazol-2-ylsulfanyl)quinoxaline], for which the “agonist activity (cAMP formation)” value was “no measurable activity”.

The target in another series is T1, human GLP-1 receptor.
Assay: not given
Also noted: Emax: dose or concentration left out as unconfirmed.
Conditions: not given
Consider `CS(=O)(=O)c1nc2cc(Cl)c(Cl)cc2nc1C(F)(F)F` [Example 19, 6,7-Dichloro-2-methanesulfonyl-3-trifluoromethylquinoxaline], for which a half-maximal effect (EC50) was put at 160 nM and the Emax stood at 120%.
Taken in the same sequence, the figures for `Cc1nc2cc(Cl)ccc2nc1Cl` [Example 46, 2,6-Dichloro-3-methylquinoxaline] were > 33000 nM and 0%.
Turning to `CC(C)S(=O)(=O)c1nc2cc(Cl)c(Cl)cc2nc1C(F)(F)F` [Example 20, 6,7-Dichloro-2-trifluoromethyl-3-isopropylsulfonylquinoxaline], the midpoint of the response, the EC50, lay at 68 nM and the Emax worked out at 140%.
Turning to `Cc1nnc(S(=O)(=O)c2nc3cc(Cl)c(Cl)cc3nc2C(C)C)s1` [Example 7, 6,7-Dichloro-2-isopropyl-3-(5-methyl-1,3,4-thiadiazol-2-ylsulfonyl)quinoxaline], the EC50 came to 78 nM and the maximal response (Emax) was 120%.
Consider `CSc1nc2ccc(Cl)cc2cc1C=O` [Example 29, 6-Chloro-2-methylsulfanylquinoline-3-carbaldehyde], for which the Emax turned out to be 13%.
The compound `Cc1nnc([S+]([O-])c2nc3cc(Cl)c(Cl)cc3nc2C(C)C)s1` (stereo not shown) [Example 6, 6,7-Dichloro-2-isopropyl-3-(5-methyl-1,3,4-thiadiazol-2-ylsulfinyl)quinoxaline] yielded an EC50 of 170 nM and an Emax of 94%.
Taken in the same sequence, the figures for `Cc1nc2cc(Cl)c(Cl)cc2nc1S(C)(=O)=O` [Example 56, 6,7-Dichloro-3-methyl-2-(methylsulfonyl)quinoxaline] were 78 nM and 130%.
`O=Cc1cc2cc(Cl)ccc2nc1Cl` [Example 25, 2,6-Dichloroquinoline-3-carbaldehyde] displayed an Emax of 15%.
Consider `COc1nc2ccc(Cl)cc2nc1Cl` [Example 47, 2,7-Dichloro-3-methoxyquinoxaline], for which the half-maximal effective concentration (EC50) was found to be 10000 nM and the Emax came to 50%.
The compound `Cc1nnc(Sc2nc3cc(Cl)c(Cl)cc3nc2C(F)(F)F)s1` [Example 2, 6,7-Dichloro-2-trifluoromethyl-3-(5-methyl-1,3,4-thiadiazol-2-ylsulfanyl)quinoxaline] returned an EC50 of 310 nM and an Emax of 100%.
